Measurements reported in PMC6267684, “Pharmacokinetic evaluation of the PNC disassembler metarrestin in wild-type and Pdx1-Cre;LSL-Kras^G12D/+;Tp53^R172H/+ (KPC) mice, a genetically engineered model of pancreatic cancer” (Cancer Chemotherapy and Pharmacology, 2018).
Like-named read-outs stand apart in the source and are kept apart here.

Legend:
[1] = Steady-state PK in KPC mice fed metarrestin-infused chow; format: in vivo; conditions: 25 mg/kg PO chow MD
Procedure: Metarrestin [ML-246; Trans-4-(7-benzyl-4-imino-5,6-diphenyl-4,7-dihydro-3H-pyrrolo[2,3-d]pyrimidin-3-yl) cyclohexanol] was manufactured in-house using the previously described 4-step synthesis sequence. Purity (> 98%) was determined by LC-MS/MS and 1H-NMR analysis as previously reported. To enhance bioavailability, the drug was micronized to particles of uniform small size with greater surface area using a technique proprietary to Crititech Inc. (Lawrence, Kansas). In brief, the drug substance was dissolved in organic solvent dichloromethane and precipitated using compressed super critical carbon dioxide as the anti-solvent. The produced material had 90% particles with a diameter less than 1.131 µm with a mean diameter of 0.829 µm (Suppl. Figure 1). […]
An ultra-performance liquid chromatography–tandem mass spectrometry (UPLC–MS/MS) method was developed to determine metarrestin concentrations in plasma and tissue samples. […] Data were analyzed using MassLynx V4.1.
The pharmacokinetic parameters were calculated using the non-compartmental approach (Models 200 and 201) of the pharmacokinetic software Phoenix WinNonlin, version 6.4 (Certara, St. Louis, MO). The area under the plasma concentration vs time curve (AUC) was calculated using the linear trapezoidal method. […]

[2] = Pharmacokinetics in C57BL/6 mice after single IV and PO administration; format: in vivo; conditions: for Kp: liver/plasma, read-out: AUC0–∞ ratio (tissue/plasma); for AUC(0-t): read-out: AUC0–24h
Procedure: For pharmacokinetic studies, metarrestin solutions prepared in 30% PEG-400 and 70% (20% w:v HP-β-CD in water) solution were administered to C57BL/6 mice at 3 mg/kg IV via tail vein injection, or 3 and 10 mg/kg orally via gavage. KPC mice were additionally treated with 25 mg/kg PO via gavage. The dosing volume was 3 mL/kg for IV route and 10 mL/kg for PO route. Dosing solutions were prepared on the day of administration. Blood samples were collected at 10, 20 min, 1, 2, 4, 7 and 24 h after 3 mg/kg IV administration. After oral administration of 3 and 10 mg/kg in C57BL6 mice, blood and liver samples were collected at 10 min, 0.5, 1, 2, 3, 5, 7, 9 and 24 h post dosing (n = 3 per time point). In KPC mice, blood, pancreatic tumor, spleen and liver samples were collected at 1, 2, 3, 6, 9, 12 and 24 h after 25 mg/kg PO administration.
Blood samples were collected in K2EDTA tubes and plasma was harvested after centrifugation at 3000 rpm for 10 min. Tissue samples were weighed and flash-frozen for PK and PD mRNA expression analyses, embedded into OCT blocks for PNC determination and processed into FFPE blocks for histopathology assessment. All PK samples were stored at − 80 °C until analysis.
An ultra-performance liquid chromatography–tandem mass spectrometry (UPLC–MS/MS) method was developed to determine metarrestin concentrations in plasma and tissue samples. Mass spectrometric analysis was performed on a Waters Xevo TQ-S triple quadrupole instrument using electrospray ionization in positive mode. The separation was performed on an Acquity BEH C18 column (50 × 2.1 mm, 1.7 µ) using a Waters Acquity UPLC system with 0.6 mL/min flow rate and gradient elution. Mobile phase A was 0.1% formic acid in water, and B was 0.1% formic acid in acetonitrile (ACN). The column temperature was maintained at 60 °C. The calibration standards and quality control (QC) samples were prepared in the control blank mouse plasma and tissue homogenate. Tissues were homogenized with 3 or 6 volumes (v/w) of deionized water on the day of analysis. Proteins were precipitated from 10 µL plasma or 5 µL tissue homogenate with 200 µL ACN containing 100 ng/mL Tolbutamide as internal standard in 96-well plates. The mixture was vortexed for 2 min and centrifuged at 4000 rpm for 30 min at 4 °C. An aliquot of 150 µL supernatant was transferred to a 350-µL 96-well plate. 0.2 µL supernatant was injected for the UPLC–MS/MS analysis. Data were analyzed using MassLynx V4.1.
The pharmacokinetic parameters were calculated using the non-compartmental approach (Models 200 and 201) of the pharmacokinetic software Phoenix WinNonlin, version 6.4 (Certara, St. Louis, MO). The area under the plasma concentration vs time curve (AUC) was calculated using the linear trapezoidal method. The slope of the apparent terminal phase was estimated by log linear regression using at least three data points and the terminal rate constant (λ) was derived from the slope. AUC0–∞ was estimated as the sum of the AUC0–t (where t is the time of the last measurable concentration) and Ct/λ. The apparent terminal half-life (t½) was calculated as 0.693/λ.

[3] = C57BL/6, mouse, liver, po, 3 mg/kg, 3 mg/kg PO single dose
[4] = C57BL/6, mouse, liver, po, 10 mg/kg, 10 mg/kg PO single dose
[5] = C57BL/6, mouse, liver, 3 mg/kg PO single dose
[6] = C57BL/6, mouse, liver, 10 mg/kg PO single dose
[7] = C57BL/6, mouse, plasma, 3 mg/kg IV single dose
[8] = C57BL/6, mouse, plasma, 3 mg/kg PO single dose
[9] = C57BL/6, mouse, plasma, 10 mg/kg PO single dose

N=c1c2c(-c3ccccc3)c(-c3ccccc3)n(Cc3ccccc3)c2ncn1[C@H]1CC[C@H](O)CC1 [metarrestin, Trans-4-(7-benzyl-4-imino-5,6-diphenyl-4,7-dihydro-3H-pyrrolo[2,3-d]pyrimidin-3-yl) cyclohexanol]
intratumor AUC0–24h [1]: 396,000 h ng/mL | Kp [2, 3]: > 50 | half-life [2, 3]: 4.7 h | Kp [2, 4]: > 50 | half-life [2, 4]: 4.1 h | half-life ([2]; C57BL/6, mouse, plasma, intravenous, oral, 10 mg/kg, low doses of 3 and 10 mg/kg, span over groups): 5 to 5.6 h | half-life ([2]; C57BL/6, mouse, plasma, iv, 3 mg/kg, 3 mg/kg IV single dose): ~5 h | half-life ([2]; C57BL/6, mouse, plasma, po, 3 mg/kg, 3 mg/kg PO single dose): 5.4 h | bioavailability ([2]; C57BL/6, mouse, plasma, po, 10 mg/kg, single oral dose 3 and 10 mg/kg via gavage): > 80% | half-life ([2]; C57BL/6, mouse, plasma, po, 10 mg/kg, 10 mg/kg PO single dose): 5.6 h | AUC(0-inf) [2, 5]: 68600 ng·h/mL | Cmax [2, 5]: 5420 ng/mL | Tmax [2, 5]: 1 h | AUC(0-t) [2, 5]: 66100 ng·h/mL | AUC(0-inf) [2, 6]: 281000 ng·h/mL | Cmax [2, 6]: 21400 ng/mL | Tmax [2, 6]: 2 h | AUC(0-t) [2, 6]: 276000 ng·h/mL | AUC(0-inf) [2, 7]: 1040 ng·h/mL | AUC(0-t) [2, 7]: 1010 ng·h/mL | clearance ([2]; C57BL/6, mouse, plasma, 3 mg/kg IV single dose, read-out: CLp (plasma clearance)): 48 mL/min/kg | Vd ([2]; C57BL/6, mouse, plasma, 3 mg/kg IV single dose, read-out: Vdss (steady-state volume of distribution)): 17 L/kg | AUC(0-inf) [2, 8]: 871 ng·h/mL | Cmax [2, 8]: 55.7 ng/mL | Tmax [2, 8]: 2 h | AUC(0-t) [2, 8]: 823 ng·h/mL | AUC(0-inf) [2, 9]: 4790 ng·h/mL | Cmax [2, 9]: 349 ng/mL | Tmax [2, 9]: 2 h | AUC(0-t) [2, 9]: 4520 ng·h/mL | t 1/2 ([2]; plasma, 3 mg/kg IV single dose, 3 mg/kg): 5 h
